# Tests used:
# UM-UC-3 = UM-UC-3 (bladder) xenograft model; assay type: in vivo, mouse
# Protocol: (§1) For xenograft models of H1373, HCC44, MiaPaca-2, SW1463, SW837, KYSE-410 and UM-UC-3, typically 5-10×10^6 cells in a 1:1 matrigel mix (0.2 mL total volume) are implanted by subcutaneous injection in hind leg of nude mice. […] Treatment is initiated with oral administration (gavage) of testing compound or vehicle (20% captisol, 25 mM phosphate, pH2.0) in 0.2 mL volume when tumor size reaches approximately 200-300 mg. Tumor growth and body weight are monitored over time to evaluate efficacy and signs of toxicity. For EL3187 PDX model, frozen vials containing tumor fragments are thawed at 37° C. in a water bath. The tumor fragments are transferred to 50 mL Falcon tube and the ice cold DMEM medium is slowly added into the tube to a total volume of 35 mL. Then the tumor fragments are centrifuged at 130×g for 2 minutes at 4° C. and supernatant is aspirated. This washing step is repeated twice and the tumor fragments are resuspended in 10 mL DMEM for implantation into athymic nude-Foxn1nu mice (Envigo RMS, Inc., Mount Comfort, Indiana). Once tumor volumes reach 800 to 1000 mm^3, animals are sacrificed and tumors are harvested using aseptic technique. Fresh tumors are cut into 10 to 15 mm^3 fragments and placed into cold Gibco hibernate medium. The tumor fragments are subcutaneously implanted into animals with a 10 g trochar needle. When tumor size reaches 200 to 300 mm^3, the animals are randomized for compound treatment.
# (§2) Among models listed in Table 2, EL3187 is a patient-derived xenograft (PDX) model, and all other are tumor xenograft models.
# [1] = NCT04956640 Phase 1a monotherapy safety: treatment-emergent adverse events; conditions: in vivo
# Text: A “DLT” is defined as any of the treatment-emergent adverse event (TEAEs), as defined by the National Cancer Institute's Common Terminology Criteria for Adverse Events, version 5.0 (NCI CTCAE v5.0), deemed clinically significant and occurring during the first 21 days of study drug per dose level per patient, unless the adverse event (AE) can be clearly related to the patient's underlying disease, other medical condition, or concomitant medications including any AEs attributed by the Investigator to the combination agent alone. A TEAE is defined as an AE that starts or worsens on or after the date of the first dose of study drug (for example on Study Day 1) through 28 days (+14 days window) after the date of the last dose of study drug or the first date starting new anticancer therapy, whichever is earlier. A Serious TEAE is defined as an TEAE that is grade 3 or higher based on severity grade assignment as defined by the National Cancer Institute's Common Terminology Criteria for Adverse Events, version 5.0 (NCI CTCAE v5.0). A Fatal TEAE is defined as an TEAE that is grade 5 based on severity grade assignment as defined by the National Cancer Institute's Common Terminology Criteria for Adverse Events, version 5.0 (NCI CTCAE v5.0). […]
# EL3187 = EL3187 (lung) patient-derived xenograft (PDX) model; assay type: in vivo, mouse
# Protocol: as §1, §2
# HCC44 = HCC44 (lung) xenograft model; assay type: in vivo, mouse
# Protocol: as §1, §2
# [2] = system: KRAS G12C-mutant advanced solid tumors; experiment: NCT04956640 Phase 1a, Phase 1b Cohort B4 and Cohort C2 pooled statements
# Text: NCT04956640 includes Phase 1a dose escalation (Part A of NCT04956640, see Table 3) followed by a Phase 1b dose expansion (Parts B to E of NCT04956640, see Table 4). […] Phase 1b dose expansion will include 12 cohorts (See Table 4) to further evaluate safety and clinical activity.
# MiaPaca-2 = MiaPaca-2 (pancreas) xenograft model; assay type: in vivo, mouse
# Protocol: as §1, §2
# KYSE-410 = KYSE-410 (esophagus) xenograft model; assay type: in vivo, mouse
# Protocol: as §1, §2
# SW1463 = SW1463 (CRC) xenograft model; assay type: in vivo, mouse
# Protocol: as §1, §2
# H1373 = H1373 (lung) xenograft model; assay type: in vivo, mouse
# Protocol: as §1, §2
# H358 lung tumor cells = experiment: Anti-tumor growth activity in lung cancer H358 xenograft mouse model; assay type: in vivo
# Protocol: H358 lung tumor cells (10×10^6) are implanted by subcutaneous injection in hind leg of nude female mice (Taconic Biosciences). A total of 4 mice in each group are used for the efficacy study. Treatment is initiated with oral administration (gavage) of the test compound or vehicle (20% Captisol®, 25 mM phosphate, pH 2.0 in 0.2 mL volume) once or twice daily for 28 days when the tumor size reaches approximately 300 mg. Tumor growth and body weight are monitored over time to evaluate efficacy and signs of toxicity.
smiles,measurement,setting,value
"C=CC(=O)N1CCN2C(=O)c3cc(F)c(-c4ccc(F)c5sc(N)c(C#N)c45)c(Cl)c3OCC[C@H]2C1 (single isomer, unassigned) [Formula I]",tumor growth inhibition (%) or regression (− %),UM-UC-3; 5 mg/kg BID x28,45.3%
same,tumor growth inhibition (%) or regression (− %),UM-UC-3; 5 mg/kg QD x28,34.3%
same,tumor growth inhibition (%) or regression (− %),UM-UC-3; 10 mg/kg BID x28,75%
same,tumor growth inhibition (%) or regression (− %),UM-UC-3; 10 mg/kg QD x28,33.6%
same,tumor growth inhibition (%) or regression (− %),UM-UC-3; 30 mg/kg BID x28,85%
same,tumor growth inhibition (%) or regression (− %),UM-UC-3; 30 mg/kg QD x28,83.1%
same,tolerability,[1],well tolerated
same,tumor growth inhibition (%) or regression (− %),EL3187; 1 mg/kg BID x28,89.2%
same,tumor growth inhibition (%) or regression (− %),EL3187; 1 mg/kg QD x28,52%
same,tumor growth inhibition (%) or regression (− %),EL3187; 3 mg/kg BID x28,−91%
same,tumor growth inhibition (%) or regression (− %),EL3187; 3 mg/kg QD x28,−39.8%
same,tumor growth inhibition (%) or regression (− %),EL3187; 10 mg/kg BID x28,−96%
same,tumor growth inhibition (%) or regression (− %),EL3187; 10 mg/kg QD x28,−96%
same,tumor growth inhibition (%) or regression (− %),HCC44; 5 mg/kg BID x28,57.5%
same,tumor growth inhibition (%) or regression (− %),HCC44; 5 mg/kg QD x28,28.3%
same,tumor growth inhibition (%) or regression (− %),HCC44; 10 mg/kg BID x28,61.8%
same,tumor growth inhibition (%) or regression (− %),HCC44; 10 mg/kg QD x28,32.7%
same,tumor growth inhibition (%) or regression (− %),HCC44; 30 mg/kg BID x28,84.1%
same,tumor growth inhibition (%) or regression (− %),HCC44; 30 mg/kg QD x28,77%
same,DLTs,[2]; as of January 2023,No DLTs were observed
same,MTD,[2]; as of January 2023,MTD was not reached
same,patients with a grade 3 or greater TEAE,[2]; as of January 2023,four
same,patients with dose reduction due to TRAE,[2]; as of January 2023,one
same,patients with permanent discontinuation due to TRAE,[2]; as of January 2023,one
same,TRAE grade in seven patients who discontinued a prior KRAS G12C inhibitor due to toxicity,[2]; in vivo,≤ 2 grade
same,median time to response,[2]; in vivo,1.4 month
same,tumor growth inhibition (%) or regression (− %),MiaPaca-2; 5 mg/kg BID x28,−36.1%
same,tumor growth inhibition (%) or regression (− %),MiaPaca-2; 5 mg/kg QD x28,81.7%
same,tumor growth inhibition (%) or regression (− %),MiaPaca-2; 10 mg/kg BID x28,−45.2%
same,tumor growth inhibition (%) or regression (− %),MiaPaca-2; 10 mg/kg QD x28,−27%
same,tumor growth inhibition (%) or regression (− %),MiaPaca-2; 30 mg/kg BID x28,−43.6%
same,tumor growth inhibition (%) or regression (− %),MiaPaca-2; 30 mg/kg QD x28,−42%
same,tumor growth inhibition (%) or regression (− %),KYSE-410; 10 mg/kg BID x28,51.5%
same,tumor growth inhibition (%) or regression (− %),KYSE-410; 10 mg/kg QD x28,25.3%
same,tumor growth inhibition (%) or regression (− %),KYSE-410; 30 mg/kg BID x28,61.8%
same,tumor growth inhibition (%) or regression (− %),KYSE-410; 30 mg/kg QD x28,66.7%
same,tumor growth inhibition (%) or regression (− %),SW1463; 5 mg/kg BID x28,48.8%
same,tumor growth inhibition (%) or regression (− %),SW1463; 5 mg/kg QD x28,52.5%
same,tumor growth inhibition (%) or regression (− %),SW1463; 10 mg/kg BID x28,79.5%
same,tumor growth inhibition (%) or regression (− %),SW1463; 10 mg/kg QD x28,78.3%
same,tumor growth inhibition (%) or regression (− %),SW1463; 30 mg/kg BID x28,98.8%
same,tumor growth inhibition (%) or regression (− %),SW1463; 30 mg/kg QD x28,89.8%
same,tumor growth inhibition (%) or regression (− %),H1373; 5 mg/kg BID x28,−26.3%
same,tumor growth inhibition (%) or regression (− %),H1373; 5 mg/kg QD x28,97.9%
same,tumor growth inhibition (%) or regression (− %),H1373; 10 mg/kg BID x28,−49%
same,tumor growth inhibition (%) or regression (− %),H1373; 10 mg/kg QD x28,−21.3%
same,tumor growth inhibition (%) or regression (− %),H1373; 30 mg/kg QD x28,−49.7%
same,% Regression (Day 12),"H358 lung tumor cells; 30 mg/kg PO, BID",−72.14%
same,% Regression (Day 26),"H358 lung tumor cells; 30 mg/kg PO, BID",−67.68%
same,% tumor regression,H358 lung tumor cells; 30 mg/kg twice daily,−67.68 to −72.14%
same,animal body weight loss,H358 lung tumor cells; through the whole study,No significant animal body weight loss

# From patent US20240108618A1, “KRAS G12C INHIBITOR DOSING REGIMENS” (Eli Lilly and Company, priority 2022, published 2024)
